Literature values, collected in patent US7872044B2, “Inhibitors of chymase” (Janssen Pharmaceutica NV, priority 2006, dated 2011).

System: angiotensin II activity in human vascular extracts
Settings: background statement

In the case of `NCCCC[C@H](N[C@@H](CCc1ccccc1)C(=O)O)C(=O)N1CCC[C@H]1C(=O)O` [lisinopril], the “angiotensin II activity inhibited” value is listed as “about 8%”.
